Measured values from patent US12053465B2, “KCC2 expression enhancing compounds and uses thereof” (Whitehead Institute for Biomedical Research, priority 2017, dated 2024).

Columns and labels:
NKCC1 mRNA = test: Quantitative RT-PCR of NKCC1 mRNA in organotypic mouse brain slices; type: cell-based
Protocol: (§1) Brain slices were also treated with the FLT3 inhibitors Crenolanib and XL-184. […] To assess whether increased KCC2 protein levels were due to increased gene transcription or enhanced protein stability, quantitative RT-PCR experiments were performed to measure the KCC2 mRNA level in KEEC-treated brain slices. […] In contrast, the expression of NKCC1, a chloride transporter that antagonizes KCC2 activity by shuttling Cl^− into the cell (44), was decreased by treatment with KEEC compounds (FIG. 8F).
(§2) Brain slice cultures were prepared from P1 neonatal mouse according to a protocol described by Antonio del Rio et al., Nature Protocols, 2010. Cerebrum slices (1 mm in thickness) were prepared from neonatal mouse brain, and were transferred to 6-well culture inserts with the pore size of 0.4 μm. The insert was placed in 6-well plates with 1 ml of culture medium. Three days after the initial culture, compounds and DMSO control were added to the medium. Alternately, in some experiments, brain slice cultures were prepared from P3 neonatal mouse according to a protocol described by Antonio del Rio et al., Nature Protocols, 2010. Cerebrum slices (1 mm in thickness) were prepared from neonatal mouse brain, and were transferred to 6-well culture inserts with the pore size of 0.4 μm. The insert was placed in 6-well plates with 1 ml of culture medium. The day after the initial culture, compounds and DMSO control were added to the medium. The medium with fresh compounds was used to replace old medium every other day. One week after drug treatment, the brain slices were harvested for Western blot or qRT-PCR analysis.
(§3) To prepare RNA samples from cultured organotypic brain slice, tissue samples were homogenized by passing through a 23 gauge needle for a number of times. Total RNA was extracted with Omega Total RNA kit and was reverse-transcribed into cDNA using the Invitrogen Superscript RT system and Oligo dT primer. SYBR green-based quantitative RT-PCR assay was performed to detect for the abundance of specific mRNA transcripts. The primer sequence for the detection of KCC2 expression in mouse brain samples are as follows: KCC2-Forward: […] (SEQ ID NO: 2); KCC2-Reverse: […] (SEQ ID NO: 3). The primer sequence for detection of NKCC1 mRNA are as follows: NKCC1-Forward: […] (SEQ ID NO: 3); NKCC1-Reverse: […] (SEQ ID NO: 4). The gene expression was calculated by normalizing the KCC2 data with the expression of housekeeping gene HDAC2 in every sample. HDAC2 expression was detected using the following primers: HDAC2-Forward: […] (SEQ ID NO: 5); HDAC2-Reverse: […] (SEQ ID NO: 6). Relative gene expression levels were calculated by normalizing KCC2 or NKCC1 expression in drug-treated groups with that in DMSO controls with the housekeeping gene HDAC being used as internal control.

KCC2 expression [1] = test: Western blot of KCC2 in cultured WT human neurons; type: cell-based; conditions: cultured WT human neurons (WIBR1); Western blot
KCC2 mRNA = test: Quantitative RT-PCR of KCC2 mRNA in organotypic mouse brain slices; type: cell-based
Protocol: as §1, §2, §3

KCC2 expression [2] = test: Western blot of KCC2 in organotypic mouse brain slices; type: cell-based; conditions: organotypic neonatal mouse brain slices, treated 7 days, vs DMSO, MeBIO or medium-only control
KCC2 expression [3] = test: Western blot of KCC2 in cultured human RTT neurons; type: cell-based
Protocol: Protein samples were collected from cultured brain slices or cultured neurons in 12-well format with RIPA lysis buffer (in mM: 150 NaCl, 25 Tris-HCl, 1 EDTA, 1% NP-40, 1% sodium deoxycholate, 0.1% SDS, with protein kinase inhibitor and protease inhibitor, pH adjusted to 7.6). A sonication step was applied to homogenize tissue and extract protein, followed by a 10 minute centrifugation at 4° C. […] The PVDF membrane was blocked for 30 minutes with 5% milk in TBS+0.1% Tween 20 (TBST), and incubated overnight at 4° C. with primary antibodies diluted in TBST-milk at the following concentrations: KCC2 (1:2000, Millipore), NKCC1 (1:1000, Iowa Hybridoma bank), α-Tubulin (1:4000, Abcam), GAPDH (1:3000, Abcam), Actin (1:2000, Sigma Aldrich #A2066). The membrane was rinsed with TBST three times to wash off excess antibodies, and then incubated in secondary HRP antibodies in TBST-milk at 1:5000 concentration.
The PVDF membrane was then stripped using the Re-blot plus strong solution (Millipore), and re-immunoblotted for NKCC1 (˜150 kDa) to acquire KCC2/NKCC1 ratio. The area and intensity of protein signal was determined using ImageJ. The relative KCC2 and NKCC1 expression were calculated by normalizing protein signal to GAPDH or Tubulin loading control.

immature mouse neurons = test: Gramicidin-perforated patch recording of EGABA in DIV6-7 immature mouse neurons; type: cell-based
[4] = system: KCC2 expression (KCC2-2A-luciferase reporter); test: KCC2-2A-luciferase reporter compound screening with RTT KCC2 reporter neurons; type: cell-based, human; conditions: for B Score: MECP2-null RTT human KCC2 reporter neurons, LINCS, SMART, ICCB libraries, Luc/CTG normalized to in-plate DMSO, hit = B score >3
Protocol: The RTT KCC2-2A-luciferase reporter neurons were treated with the test compounds from the LINCS kinase inhibitor library and IRSF SMART compound library and incubated before being lysed. The cell lysate was divided into two parts to measure luciferase signal (KCC2 translation) and Cell-Titer Glow (CTG, amount of ATP). The luciferase signal was normalized to CTG for each well, and the Luc/CTG ratio was normalized to the in-plate DMSO negative control to calculate fold change ratio.
Additional screens for reporter activation in the MECP2-null RTT human KCC2 reporter neurons (isogenic to the WT reporter cells used above) were performed with the LINCS and SMART libraries as well as the ICCB known bioactive library and identified hits as compounds with B score >3.
The cells were dissociated with Accutase and resuspended in 10 ml neuronal differentiation medium to count cells. The cells were then diluted to the final density of 200,000 to 500,000 cells/ml. Matrigel was added to the cell suspension at a dilution ratio of 1:300 to promote cell adhesion after plating. AraC was added to cell suspension at the concentration of 2 μM to inhibit cell division. The cells were plated into 96-well plates with an automated cell seeding machine using the following protocol: The neuron flask was washed with PBS. The neurons were digested off the plate with Accutase for 30 minutes at 37° C. Next, the dissociated cells were collected and spun down at 750 rpm for 5 minutes. The cell pellet was dissociated by gentle trituration with P1000 pipet and the cells were resuspended with 10 ml of neuronal medium. Then, the cells were filtered through a 40 μm cell strainer (Falcon) to get rid of clumps. The resulting single-cell suspension was counted using a Countess automated cell counter (Invitrogen Countess Automated Cell Counter, Catalog no. C10227). The neurons were resuspended with neuronal medium to 10× of the destination density (100,000 cells to 400,000 cells per ml). The cells were plated with a multichannel pipette, or proceeded to the machine-plating protocol described below:
The day after cell seeding, small molecule compounds from the IRSF (International Rett Syndrome Foundation) library were prepared at a concentration of 1 mM and dispensed into a blank V-bottomed test plates at 2 μl per well. Compound solvent DMSO was included in every plate as control. Using a liquid handling robot, about 80 μl of culture medium were discarded. Neuronal medium in the volume of 200 μl was added to the V-bottom test plate that contained 2 μl of 1 mM compounds, and mixed with compounds by pipetting up-and-down 3 times. The medium that contained the 10 μM compounds was then applied to the neuronal cell culture and incubated for 2 weeks before cell lysis and luciferase assay were performed.
The cells were dissociated with Accutase, resuspended in 10 ml neuronal differentiation medium to count cells. the final cell seeding density was 20 k-40 k cells per well for 96-well plates, and ˜10 k cells per well for 384-well plates. Matrigel was added to the cell suspension at a dilution ratio of 1:300 to promote cell adhesion after plating. AraC were added to the cell suspension at the concentration of 0.5 μM to inhibit astroglial cell division. The cells were dispensed into 96-well or 384-well plates (Coming) using a BioTek EL406 plate dispenser. […] The neurons were incubated with the compounds at 37° C./5% CO2 for a week before the luciferase assay.
The cells used for luciferase assay were KCC2 reporter neurons differentiated for 4 weeks, and treated with drug in 96-well format for 2 weeks. Cell density was between 20 k-40 k cells per well.
On the day of the luciferase assay, the cells were washed with PBS for two times, and 100 μl of cell lysis buffer was applied to the washed cells. The cell plates were transferred to a rocker to shake for 10 minutes in order to fully lyse the cells.

REST = test: Western blot of REST in cultured human RTT neurons; type: cell-based
Source text: Two hit compounds Resveratrol and Piperine act on different pathways than the kinase inhibitors, activating the Sirtuin 1 (SIRT1) (49) and the transient receptor potential cation channel subfamily V member 1 (TRPV1) (50) signaling pathways, respectively.
Protein samples were collected from cultured brain slices or cultured neurons in 12-well format with RIPA lysis buffer (in mM: 150 NaCl, 25 Tris-HCl, 1 EDTA, 1% NP-40, 1% sodium deoxycholate, 0.1% SDS, with protein kinase inhibitor and protease inhibitor, pH adjusted to 7.6). A sonication step was applied to homogenize tissue and extract protein, followed by a 10 minute centrifugation at 4° C. The protein samples were mixed with NuPAGE LDS sample buffer, heated at 95° C. for 10 minutes, and then separated on NuPAGE 4-12% Bis-Tris gel and transferred to PVDF membrane. The PVDF membrane was blocked for 30 minutes with 5% milk in TBS+0.1% Tween 20 (TBST), and incubated overnight at 4° C. with primary antibodies diluted in TBST-milk at the following concentrations: KCC2 (1:2000, Millipore), NKCC1 (1:1000, Iowa Hybridoma bank), α-Tubulin (1:4000, Abcam), GAPDH (1:3000, Abcam), Actin (1:2000, Sigma Aldrich #A2066). The membrane was rinsed with TBST three times to wash off excess antibodies, and then incubated in secondary HRP antibodies in TBST-milk at 1:5000 concentration.

NRSF/REST = conditions: glioblastoma cell line; via SIRT1 pathway (49); cited from earlier work
[5] = cultured human RTT neurons, Western blot
[6] = co-applied with EX-527 below the threshold for SIRT1 pathway inhibition
[7] = in the presence of a high concentration of SIRT1 pathway blocker EX-527, vs DMSO control

Row | SMILES | NKCC1 mRNA level (NKCC1 mRNA) | KCC2 expression (KCC2 expression [1]) | KCC2 mRNA level (KCC2 mRNA) | KCC2 protein level (KCC2 expression [2]) | KCC2 expression (KCC2 expression [3]; [5]) | EGABA after treatment (immature mouse neurons; DIV6-7 immature mouse neurons, untreated about −50 mV) | significant hyperpolarizing shift in EGABA (immature mouse neurons; DIV6 cultured immature mouse neurons) | B Score [4] | level of REST (REST; [6]) | REST expression (REST; [7]) | KCC2 expression (KCC2 expression [3]; [6]) | concentration at which treatment significantly increases KCC2 expression (KCC2 expression [3]; cultured ESC-derived human RTT neurons, Western blot) | KCC2 expression (KCC2 expression [3]; [7]) | expression of NRSF/REST (NRSF/REST) | KCC2 reporter activity in RTT neurons ([4]; RTT KCC2-2A-luciferase reporter neurons vs in-plate DMSO)
1 | COc1cc2nccc(Oc3ccc(NC(=O)C4(C(=O)Nc5ccc(F)cc5)CC4)cc3)c2cc1OC [XL-184, N′-[4-[(6,7-dimethoxy-4-quinolinyl)oxy]phenyl]-N-(4-fluorophenyl)-1,1-cyclopropanedicarboxamide] | significant reduction in NKCC1 mRNA level | significant enhancement of KCC2 expression | significantly increased KCC2 expression | significantly increased the KCC2 protein level | significant enhancement of KCC2 expression | about −70 mV | induces significant hyperpolarizing shift in EGABA | 3.25 |  |  |  |  |  |  | 
2 | CC1(COc2ccc3c(c2)ncn3-c2ccc3cccc(N4CCC(N)CC4)c3n2)COC1 [Crenolanib, 1-(2-{5-[(3-Methyloxetan-3-yl)methoxy]-1H-benzimidazol-1-yl}quinolin-8-yl)piperidin-4-amine] | significant reduction in NKCC1 mRNA level | significant enhancement of KCC2 expression | significantly increased KCC2 expression | significantly increased the KCC2 protein level | significant enhancement of KCC2 expression |  |  |  |  |  |  |  |  |  | 
3 | CCN(CC)CCNC(=O)c1c(C)[nH]c(/C=C2\C(=O)Nc3ccc(F)cc32)c1C [Sunitinib, N-(2-diethylaminoethyl)-5-[(Z)-(5-fluoro-2-oxo-1H-indol-3-ylidene)methyl]-2,4-dimethyl-1H-pyrrole-3-carboxamide] | significant reduction in NKCC1 mRNA level | significant enhancement of KCC2 expression | significantly increased KCC2 expression |  |  |  |  |  |  |  |  |  |  |  | 
4 | Oc1ccc(/C=C/c2cc(O)cc(O)c2)cc1 [Resveratrol, 3,5,4'-trihydroxy-trans-stilbene] |  |  |  |  | increase KCC2 expression |  |  | 12.65 | reduction in the level of REST | neither KCC2 nor REST was changed | substantial increase in KCC2 expression | 10 µM | neither KCC2 nor REST was changed | reduces expression of the neuronal gene repressor NRSF/REST | significant increase of KCC2 reporter activity
5 | O=C1Nc2ccccc2/C1=C1/Nc2ccccc2/C1=N\O [Indirubin-monoxime, (2Z,3E)-3-(hydroxyimino)-[2,3′-biindolinylidene]-2′-one] | significant reduction in NKCC1 mRNA level |  | significantly increased KCC2 expression |  | increased KCC2 expression levels significantly |  |  |  |  |  |  |  |  |  | 
